In one test the test system is prostacyclin production. The test can be described thus: Prostacyclin release from mouse aortic rings (6-keto-PGF1α by EIA). Conditions: peptide twenty hours; Ach 1 μM thirty minutes. Here is the method: To further test the specificity of AP-Cav, Ach-induced prostacyclin production was measured. For measurement of prostacyclin release, after twenty hour incubation period, aortic segments (4-5 mm) were placed in sterile 48-well tissue culture plates with 300 μl of KHS at 37° C. for thirty minutes in an incubator. Then aliquots of […] were taken in order to measure the basal release of prostacyclin. Ach (1 μM) was added and the plate was kept in the incubator for an additional thirty minutes. Aliquots were then taken in order to measure the Ach-stimulated release of prostacyclin. This protocol was performed in absence or in presence of ibuprofen (10 μM). The aliquots were frozen and prostacyclin release was measured as the stable breakdown product, 6-keto-PGF1α, by EIA (Amersham).

Test [1] has as its system isolated mouse aorta. The test can be described thus: Phenylephrine-induced contraction of isolated mouse aorta. Conditions: 10 μM peptide preincubation. The procedure: (§1) For isolated mouse aortic rings preparations, male C57 black mice (5-7 weeks of age) were anesthetized with methoxyflurane and sacrificed by exsanguination. The thoracic aorta was dissected and cut into cylindrical segments of three millimeters in length. Using a sterile 48-well tissue culture plate, each ring was incubated in a total volume of one ml with either peptides or vehicle (DMSO) diluted in DMEM supplemented with penicillin (100 units/ml), streptomycin (100 μg/ml) and L-glutamine (1 mM). The plate was incubated with 5% CO2. Following incubation with the peptides (one, six, twelve or twenty hours), rings were washed in oxygenated (95% O2-5% CO2) Krebs-Henseleit bicarbonate buffer solution (KHS) of the following composition (NaCl—118.3 mmol/L, KCl—4.7 mmol/L, CaCl2—2.5 mmol/L, MgSO4—1.2 mmol/L, KH2PO4—1.2 mmol/L, NaHCO3—25 mmol/L, glucose—5.6 mmol/L at 37° C. with ibuprofen (10 μM). The rings were suspended by two tungsten wires ([…] thickness) inserted into the lumen and mounted in a vessel myograph system (five ml chamber, Kent Scientific). The mouse aortas were submitted to a resting tension of 1.5 grams and isometric tension was recorded using a force transducer coupled to a MacLab data acquisition system. […] In some experiments concentration-response curves to the contractile effects of PE were monitored.

Test [2] concerns carrageenan induced paw edema. In words: Murine carrageenan induced paw edema model. It is filed as in vivo, mouse. Conditions: 1 mg/kg, paws 48 hours post-injection, H&E. The procedure: For in vivo inflammation studies the murine carrageenan induced paw edema model was used. Briefly, male, Swiss mice (25-30 grams) were divided in groups (n=6-7) and lightly anaesthetised with methoxyflurane. Each group of animals received a subplantar administration of 50 μl of 1% (w/v) λ carrageenan. Paw volume was measured using a hydroplethismometer modified for measuring small volumes (Ugo Basile) immediately before the carrageenan injection and twenty-four and forty-eight hours thereafter. The increase in paw volume is evaluated as the difference between paw volume at each time point and the basal volume. AP-Cav (0.3, 1 mg/kg i.p.) AP-Cav-X (1 mg/kg i.p.) and dexamethasone (0.1 mg/kg s.c.) were administered at the time of carrageenin administration (time zero) and at twenty-four and forty-eight hours. In a separate series of experiments, forty-eight hours post carrageenan injections, animals were sacrificed by cervical dislocation and both paws were cut. The right paws were embedded in OCT medium and cross sections ([…] of thickness) were obtained for staining with hematoxylin and eosin.

In the next test the test system is isolated mouse aortas. The test can be described thus: Sodium nitroprusside induced (endothelium independent) relaxation of mouse aorta. Conditions: 10 μM peptide, twenty hours; SNP 10 μM.
The next test relates to mouse aortic rings. The test can be described thus: L-NAME induced contraction of peptide-pretreated mouse aortic rings. Conditions: vessels pretreated with 10 μM peptide; L-NAME 100 μM. Here is the method: as §1, with “monitored. […]” for “monitored.”
A further test has as its system HepG-2 tumors. In words: HepG-2 tumor growth in nude mice. In kind it is in vivo, mouse. Conditions: 2.5 mg/kg, day fourteen. The procedure: The ability of the AP-Cav peptide to influence tumor growth in vivo was also examined. Nude mice were injected with the HepG-2 cells, a human hepatocarcinoma line, and the effects of AP-Cav and AP-Cav-X examined after daily administration of the peptides intraperitoneal. For HepG-2 cells implants in nude mice, the human hepatocarcinoma cell line, HepG-2, was cultured in minimal essential media with 10% fetal bovine serum, 2 mM L-glutamine, penicillin and streptomycin. Cells were grown on 150 mm dishes up to 80% confluence, trypsinized and ressuspended in serum free media. Viable cells were counted using the trypan blue exclusion method. A cell suspension was prepared at a density of 5×10^7 cells/ml. Nude mice were then injected in the flank with 100 μl of the HepG-2 cell suspension.
When the tumors reached a solid palpable mass (7-10 days), treatment with the different drugs began. Peptides were dissolved in 0.01% (v/v) DMSO and administered daily by i.p. injection (100 μl/20 gram mouse) for fourteen days. Tumor volume was determined every day using the formula width^2×length×0.52. For histochemistry tumors were excised from the animal at day fourteen, washed in phosphate buffered saline and fixed in 70% ethanol. […] Images were captured using a Zeiss microscope coupled to a CCD camera and were recorded with the NIH Image program.

The subject of test [3] is bovine aortic endothelial cells (BAEC). In words: Ionomycin stimulated NO release from cultured endothelial cells (chemiluminescence). It is filed as cell-based. Conditions: 1 μM peptide six hours; ionomycin 1 μM thirty minutes. The procedure:
For measurement of nitric oxide release from cultured endothelial cells, bovine aortic endothelial cells (BAEC) were cultured in high glucose Dulbecco's modified Eagle's medium (DMEM) containing 10% (v/v) fetal bovine serum, penicillin, streptomycin and L-glutamine. For measurement of ionomycin stimulated NO release, confluent BAEC were cultured in […]. Cells were washed and media was changed to serum free DMEM containing peptides or vehicle (0.01% DMSO). Following a six hour incubation, peptides were washed out and cells were stimulated with ionomycin (1 μM) for thirty minutes. Media was collected and processed for the measurement of nitrite (NO2—), the stable breakdown product of NO in aqueous solution, by NO-specific chemiluminescence. Samples containing NO2— were refluxed in glacial acetic acid containing sodium iodide. […] In all experiments, NO2— release was inhibitable by a NOS inhibitor.

The subject of the next test is vascular leakage. In words: Mustard oil induced Evans blue extravasation in the mouse ear (vascular permeability). In kind it is in vivo. Conditions: 2 mg/kg i.p., forty-five minute pretreatment; read after thirty minutes. The procedure: FIG. 10—AP-caveolin peptide reduces vascular leakage. Mice were pretreated with AP-Cav, AP-Cav-X (2 mg/kg of each, i.p.) or L-NAME (30 mg/kg, i.p.) for forty-five minutes followed by Evans blue administration (30 mg/kg, i.v.). Mustard oil was applied to the ventral and dorsal side of the right ear one minute after Evans blue injection. The extent of Evans blue extravasation was assessed after thirty minutes (n=4 mice per group for vehicle and L-NAME treated mice and n=5 for AP-Cav and AP-Cav-X treated mice; *p<0.05). (D) Representative pictures of mice subjected to mustard oil induced inflammation.
To directly assess if the AP-peptide can influence vascular leakage in an additional model, we treated mice with vehicle, AP-Cav, AP-Cav-X (2 mg/kg, i.p. for each; forty-five minute pretreatment) or L-NAME (30 mg/kg, i.p., […] pretreatment) and examined the ability of mustard oil to induce the extravasation of Evans blue, as an index of vascular permeability. […] Thus, in two distinct models, AP-Cav reduces inflammation likely through attenuating eNOS-dependent blood flow and/or permeability changes evoke by inflammatory stimuli.

Test [4] deals with isolated mouse aorta. In words: Ach-induced relaxation of isolated mouse aortic rings (organ bath). Conditions: 10 μM peptide, twenty hours incubation, PE precontracted rings. Here is the method: as §1

“Also recorded” adds a separate entry of the source.

For the substance “AP-Cav-X: Scrambled control peptide Cav-X (WGIDKAFFTTSTVTYKWFRY, SEQ ID NO: 9) fused to the antennapedia internalization sequence; SEQ ID NO: 12 (RQIKIWFQNRRMKWKKWGIDKAFFTTSTVTYKWFRY)”, the “basal or Ach stimulated prostacyclin production (6-keto-PGF1α)” value in the test on prostacyclin production is “Neither AP-Cav-X nor AP-Cav influenced; also recorded: do not affect Ach-induced prostacyclin release”. The “potentiation of the vasoconstrictor actions of phenylephrine” value with isolated mouse aorta [1] is recorded as “but not AP-Cav-X resulted in potentiation”. For the same substance, the “cellular infiltration into the sites of inflammation (histology)” value in test [2] is “did not show marked differences”. For the same substance, in the test with isolated mouse aortas, the “effect on vasorelaxant properties of sodium nitroprusside” value is “had no effect”. Moreover, the “further increase in isometric tension by L-NAME” value in the test with mouse aortic rings is listed as “further increased isometric tension”. In the test with HepG-2 tumors, the “tumor morphology (hematoxylin and eosin)” value is “classical epitheliod appearance and were highly vascularized”. For the same substance, the “calcium ionophore stimulated NOx release” value in test [3] is “but not AP-Cav-X blocked”. For the same substance, the “vascular leak (Evans blue extravasation)” value in the test on vascular leakage was “dilated vessels and diffuse blue dye in the periphery of the right ear”. Also, the “effect on Ach-induced relaxation” value in the test on isolated mouse aorta [4] was “did not influence Ach-induced relaxation”.

These data come from patent US7494976B2, “Caveolin peptides and their use as therapeutics” (Yale University, priority 2000, dated 2009).
